Source: ChEMBL document CHEMBL1240332, “Mechanisms, biology and inhibitors of deubiquitinating enzymes” (Nat Chem Biol, 2007)

Legend:
[1] = target: T1, Ubiquitin carboxyl-terminal hydrolase 5 (Homo sapiens, UniProt P45974); test: Inhibition of isopeptidase T
T1 sequence (P45974 whole entry): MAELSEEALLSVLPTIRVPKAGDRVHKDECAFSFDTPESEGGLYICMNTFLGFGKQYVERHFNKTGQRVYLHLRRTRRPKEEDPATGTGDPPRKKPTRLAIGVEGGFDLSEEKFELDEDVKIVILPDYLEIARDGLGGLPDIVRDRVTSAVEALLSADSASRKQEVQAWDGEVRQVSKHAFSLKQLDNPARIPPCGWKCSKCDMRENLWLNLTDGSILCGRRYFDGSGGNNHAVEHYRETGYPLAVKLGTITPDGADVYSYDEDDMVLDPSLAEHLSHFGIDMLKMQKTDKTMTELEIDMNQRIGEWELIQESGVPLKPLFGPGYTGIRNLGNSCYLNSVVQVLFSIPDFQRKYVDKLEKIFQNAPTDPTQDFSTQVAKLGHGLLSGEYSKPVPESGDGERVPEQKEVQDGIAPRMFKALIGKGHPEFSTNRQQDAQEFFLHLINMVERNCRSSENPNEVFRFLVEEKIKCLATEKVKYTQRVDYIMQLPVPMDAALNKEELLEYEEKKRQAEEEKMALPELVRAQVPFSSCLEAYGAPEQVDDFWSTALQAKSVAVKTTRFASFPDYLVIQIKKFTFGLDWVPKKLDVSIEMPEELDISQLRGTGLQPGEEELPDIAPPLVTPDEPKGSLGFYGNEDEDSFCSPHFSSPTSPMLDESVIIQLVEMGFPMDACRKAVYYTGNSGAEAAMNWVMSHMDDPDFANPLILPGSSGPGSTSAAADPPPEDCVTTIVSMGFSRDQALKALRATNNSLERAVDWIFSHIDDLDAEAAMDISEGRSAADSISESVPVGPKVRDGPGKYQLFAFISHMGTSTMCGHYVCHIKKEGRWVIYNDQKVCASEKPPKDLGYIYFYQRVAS

[2] = target: T2, Ubiquitin carboxyl-terminal hydrolase isozyme L3 (Homo sapiens, UniProt P15374); test: Inhibition of UCHL3
T2 sequence (P15374 whole entry): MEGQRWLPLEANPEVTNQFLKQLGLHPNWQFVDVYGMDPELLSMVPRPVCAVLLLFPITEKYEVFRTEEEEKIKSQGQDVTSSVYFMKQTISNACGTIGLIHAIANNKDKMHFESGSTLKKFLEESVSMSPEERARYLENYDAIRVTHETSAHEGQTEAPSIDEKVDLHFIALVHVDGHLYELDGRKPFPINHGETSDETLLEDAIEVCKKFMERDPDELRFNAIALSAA

[3] = target: T3, Caspase-3 (Homo sapiens, UniProt P42574); test: Inhibition of caspase3
T3 sequence (P42574 whole entry): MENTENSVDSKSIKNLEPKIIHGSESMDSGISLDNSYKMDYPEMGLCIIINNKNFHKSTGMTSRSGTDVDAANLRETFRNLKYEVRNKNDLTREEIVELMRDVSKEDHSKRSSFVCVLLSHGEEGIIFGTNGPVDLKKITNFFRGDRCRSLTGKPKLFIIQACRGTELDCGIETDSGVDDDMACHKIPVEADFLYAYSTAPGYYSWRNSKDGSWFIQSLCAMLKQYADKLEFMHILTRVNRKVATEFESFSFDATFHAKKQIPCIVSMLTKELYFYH

[4] = target: T4, Protein-glutamine gamma-glutamyltransferase (Homo sapiens, UniProt P21980); test: Inhibition of tissue transglutaminase
T4 sequence (P21980 whole entry): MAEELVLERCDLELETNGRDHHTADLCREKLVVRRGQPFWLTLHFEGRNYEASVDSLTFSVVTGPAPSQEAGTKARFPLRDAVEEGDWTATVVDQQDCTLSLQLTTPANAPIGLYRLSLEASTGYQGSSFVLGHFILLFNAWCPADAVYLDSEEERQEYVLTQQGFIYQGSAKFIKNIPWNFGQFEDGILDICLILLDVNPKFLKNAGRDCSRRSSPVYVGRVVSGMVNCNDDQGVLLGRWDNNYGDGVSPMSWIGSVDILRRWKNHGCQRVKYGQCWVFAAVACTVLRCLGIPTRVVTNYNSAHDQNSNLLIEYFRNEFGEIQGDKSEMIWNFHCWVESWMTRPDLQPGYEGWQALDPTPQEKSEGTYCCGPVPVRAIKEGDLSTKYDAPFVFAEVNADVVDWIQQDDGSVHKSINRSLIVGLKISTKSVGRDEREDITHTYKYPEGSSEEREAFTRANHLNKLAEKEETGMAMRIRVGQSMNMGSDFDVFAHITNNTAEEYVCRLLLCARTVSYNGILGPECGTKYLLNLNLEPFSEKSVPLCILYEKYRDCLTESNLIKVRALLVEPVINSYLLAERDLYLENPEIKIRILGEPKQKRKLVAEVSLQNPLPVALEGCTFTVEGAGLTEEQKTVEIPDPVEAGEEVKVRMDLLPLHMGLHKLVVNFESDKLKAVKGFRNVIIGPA

[5] = target: T2, Ubiquitin carboxyl-terminal hydrolase isozyme L3; test: Inhibition of UCHL3 in human H1299 cells; assay type: cell-based
[6] = target: T5, Ubiquitin carboxyl-terminal hydrolase isozyme L1 (Homo sapiens, UniProt P09936); test: Inhibition of UCHL1 in human H1299 cells; assay type: cell-based
T5 sequence (P09936 whole entry): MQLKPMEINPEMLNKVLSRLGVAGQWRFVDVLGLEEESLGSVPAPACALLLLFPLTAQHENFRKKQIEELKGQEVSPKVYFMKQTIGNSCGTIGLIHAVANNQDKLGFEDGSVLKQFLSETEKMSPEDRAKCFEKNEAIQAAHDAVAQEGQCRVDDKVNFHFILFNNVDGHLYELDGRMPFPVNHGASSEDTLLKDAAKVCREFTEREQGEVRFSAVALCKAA

| SMILES | Ki [1] [µM] | Ki [2] [µM] | Ki [3] [µM] | Ki [4] [µM] | IC50 [5] [µM] | IC50 [6] [µM] |
| --- | --- | --- | --- | --- | --- | --- |
| Nc1c(C(=O)c2ccccc2)sc2[nH]c(=O)c(C(=O)O)cc12 | > 100 | > 100 | > 100 | > 100 | – | – |
| O=C1CC(=O)c2c(Cl)c(Cl)c(Cl)c(Cl)c21 | – | – | – | – | 0.6 | 75 |
| CC(=O)O/N=C1/C(=O)N(Cc2ccc(Cl)c(Cl)c2)c2ccc(Br)cc21 | – | – | – | – | 17 | 0.81 |
| CC(=O)O/N=C1/C(=O)N(Cc2cc(Cl)ccc2Cl)c2ccc(Br)cc21 | – | – | – | – | 25 | 0.88 |
| CC(=O)O/N=C1/C(=O)N(Cc2ccc(Cl)c(Cl)c2)c2ccc(I)cc21 | – | – | – | – | 23 | 0.94 |
| CCCCc1ccc(-c2n[nH]c(=S)n2-c2ccc(C(C)C)cc2)cc1 | – | – | – | – | 47 | 126 |
| CC1=CC(=O)c2ccccc2C1=O [MENADIONE] | – | – | – | – | 71 | 290 |
